Results as given in ChEMBL document CHEMBL5705903, “A DNA Hypomethylation Signature Predicts Antitumor Activity of LSD1 Inhibitors in SCLC” (Cancer Cell, 2015).
Activity calls are given as the source filed them. The calls are words filed in the database; no cut-off is given here.

What was measured:
[1] = Dose normalized AUC (0 to last) in mouse blood at 5 mg/kg, po by HPLC/MS/MS analysis; format: ADME, organism-based; conditions: in vivo
[2] = Cmax in mouse tumor at 5 mg/kg, po by HPLC/MS/MS analysis; format: ADME, organism-based, Neoplasm
[3] = Toxicity in mouse xenografted with human NCI-H1417 cells assessed as grooming behaviour at 1.5 mg/kg, po administered daily measured for 30 days; format: organism-based; conditions: in vivo, 720 h, time 30 day
[4] = Effect on cleaved PARP level in human NCI-H526 cells assessed as relative expression at 100 nM measured after 10 days by Western blot analysis (reference value: 0.81); format: functional; conditions: time 10 day
[5] = Effect on cleaved PARP level in human NCI-H526 cells assessed as relative expression at 1000 nM measured after 10 days by Western blot analysis (reference value: 0.81); format: functional; conditions: time 10 day
[6] = Effect on cleaved PARP level in human NCI-H526 cells assessed as fold change at 1000 nM measured after 7 days by Western blot analysis (reference value: 1.00); format: functional; conditions: time 7 day
[7] = Effect on cleaved PARP level in human NCI-H526 cells assessed as fold change at 10 nM measured after 14 days by Western blot analysis (reference value: 1.00); format: functional; conditions: time 14 day
[8] = Effect on cleaved PARP level in human NCI-H526 cells assessed as fold change at 1000 nM measured after 14 days by Western blot analysis (reference value: 1.00); format: functional; conditions: time 14 day
[9] = Effect on cleaved PARP level in human NCI-H524 cells assessed as relative expression at 100 nM measured after 10 days by Western blot analysis (reference value: 0.95); format: functional; conditions: time 10 day
[10] = Effect on cleaved PARP level in human NCI-H524 cells assessed as relative expression at 1000 nM measured after 14 days by Western blot analysis (reference value: […]); format: functional; conditions: time 14 day
[11] = Effect on cleaved PARP level in human COLO-668 cells assessed as relative expression at 100 nM measured after 10 days by Western blot analysis (reference value: 1.07); format: functional; conditions: time 10 day
[12] = Effect on cleaved PARP level in human COLO-668 cells assessed as fold change at 10 nM measured after 7 days by Western blot analysis (reference value: 1.00); format: functional; conditions: time 7 day
[13] = Effect on cleaved PARP level in human NCI-H1694 cells assessed as relative expression at 10 nM measured after 10 days by Western blot analysis (reference value: 0.31); format: functional; conditions: time 10 day
[14] = Effect on cleaved PARP level in human NCI-H69 cells assessed as fold change at 1000 nM measured after 7 days by Western blot analysis (reference value: 1.00); format: functional; conditions: time 7 day
[15] = Effect on cleaved PARP level in human NCI-H69 cells assessed as fold change at 100 nM measured after 14 days by Western blot analysis (reference value: 1.00); format: functional; conditions: time 14 day
[16] = Effect on cleaved PARP level in human NCI-H510 cells assessed as fold change at 10 nM measured after 14 days by Western blot analysis (reference value: 1.00); format: functional, NCI-H510A; conditions: time 14 day
[17] = Effect on cleaved PARP level in human NCI-H889 cells assessed as fold change at 10 nM measured after 10 days by Western blot analysis (reference value: 1.00); format: functional; conditions: time 10 day
[18] = Effect on cleaved PARP level in human NCI-H2171 cells assessed as relative expression at 10 nM measured after 10 days by Western blot analysis (reference value: 0.02); format: functional; conditions: time 10 day
[19] = Effect on cleaved PARP level in human NCI-H2171 cells assessed as fold change at 1000 nM measured after 7 days by Western blot analysis (reference value: 1.00); format: functional; conditions: time 7 day
[20] = Effect on cleaved PARP level in human NCI-H2171 cells assessed as fold change at 1000 nM measured after 14 days by Western blot analysis (reference value: 1.00); format: functional; conditions: time 14 day
[21] = Effect on cleaved PARP level in human NCI-H146 cells assessed as relative expression at 1000 nM measured after 7 days by Western blot analysis (reference value: […]); format: functional; conditions: time 7 day
[22] = Effect on cleaved PARP level in human NCI-H146 cells assessed as relative expression at 1000 nM measured after 10 days by Western blot analysis (reference value: 0.27); format: functional; conditions: time 10 day
[23] = Toxicity in rat assessed as declining clinical condition measured for 28 days; conditions: in vivo, 672 h, time 28 day
[24] = Toxicity in dog assessed as effect on ECG measured for 28 days; design: species or system Canis lupus familiaris; conditions: in vivo, 672 h, time 28 day
NCI-H69 = assay: Antitumor activity against human NCI-H69 cells xenografted in nude mouse assessed as mean tumor volume at 1.5 mg/kg, po administered daily measured twice weekly (reference value: 1063 +/- 161 mm3); format: functional
NCI-H1417 [25] = assay: Antitumor activity against human NCI-H1417 cells xenografted in nude mouse assessed as mean tumor volume at 1.5 mg/kg, po administered daily measured twice weekly (reference value: 2262 +/- 299 mm3); format: functional
NCI-H1417 [26] = assay: Antitumor activity against human NCI-H1417 cells xenografted in nude mouse assessed as tumor growth inhibition at 1.5 mg/kg, po administered daily measured twice weekly relative to control; format: functional; conditions: read-out: TGI
NCI-H146 = assay: Effect on NSE gene expression in human NCI-H146 cells at 1 uM measured after 4 to 7 days by qRT-PCR analysis; format: functional, cell-based; conditions: time 4-7 day
NCI-H446 = assay: Effect on NSE gene expression in human NCI-H446 cells at 1 uM measured after 4 to 7 days by qRT-PCR analysis; format: functional, cell-based; conditions: time 4-7 day
NCI-H510A = assay: Effect on NCAM gene expression in human NCI-H510A cells at 1 uM measured after 4 days by qRT-PCR analysis; format: functional, cell-based; conditions: time 4.0 day
COLO-668 = assay: Effect on SYP gene expression in human COLO-668 cells at 1 uM measured after 4 days by qRT-PCR analysis; format: functional, cell-based; conditions: time 4.0 day
NCI-H526 [27] = assay: Effect on genomic redistribution of LSD1 to new sites in human NCI-H526 cells at 1 uM; format: functional, cell-based
NCI-H526 [28] = assay: In vivo inhibition of LSD1 in human NCI-H526 cells xenografted in nude mouse assessed as change in FEZ1 gene expression administrated daily for 5 days by qRT-PCR analysis; format: functional, organism-based; conditions: dose 0.02-135 mg/kg, time 5.0 day
NCI-H526 [29] = assay: In vivo inhibition of LSD1 in human NCI-H526 cells xenografted in nude mouse assessed as change in LIX1L gene expression administrated daily for 5 days by qRT-PCR analysis; format: functional, organism-based; conditions: dose 0.02-135 mg/kg, time 5.0 day
NCI-H526 [30] = assay: In vivo inhibition of LSD1 in human NCI-H526 cells xenografted in nude mouse assessed as change in TOX3 gene expression administrated daily for 5 days by qRT-PCR analysis; format: functional, organism-based; conditions: dose 0.02-135 mg/kg, time 5.0 day
NCI-H1417 [31] = assay: In vivo inhibition of LSD1 in human NCI-H1417 cells xenografted in nude mouse assessed as change in SNTB1 gene expression measured after 24 hrs post single administration by qRT-PCR analysis; format: functional, organism-based; conditions: dose 0.02-135 mg/kg
[32] = target: Lysine-specific histone demethylase 1A (Homo sapiens, UniProt O60341)
Description: Binding affinity to LSD1 (unknown origin) using H3K4me2 as substrate assessed as inactivation constant by HRP-coupled amplex red assay

For `O=C(O)c1ccc(CN2CCC(CN[C@@H]3C[C@H]3c3ccccc3)CC2)cc1` [GSK2879552], the AUClast/dose [1] was 171 ng·h/mL/mg/kg, the Cmax [2] was 355 ng/mL and the Activity [3] was “Non-Toxic”. For the same compound, the Activity [4] was 0.94, the Activity [5] was 1.15 and the “fold change (FC)” value [6] was 1.3. The “fold change (FC)” value [7] was 0.73, the “fold change (FC)” value [8] was 1.37 and the Activity [9] was 0.67. For the same compound, the Activity [10] was 1.17, the Activity [11] was 0.74 and the “fold change (FC)” value [12] was 0.74. The Activity [13] was 0.27, the “fold change (FC)” value [14] was 2.21 and the “fold change (FC)” value [15] was 5.03. The “fold change (FC)” value [16] was 1.79, the “fold change (FC)” value [17] was 1.68 and the Activity [18] was 0.02. For the same compound, the “fold change (FC)” value [19] was 2.18, the “fold change (FC)” value [20] was 2.4 and the Activity [21] was 2.43. For the same compound, the Activity [22] was 0.24, the Activity [23] was “Toxic” and the Activity [24] was “Toxic”. It also gave an Activity (NCI-H69) of 610 mm3, an Activity (NCI-H1417 [25]) of 546 mm3 and an inhibition in vivo at 1.5 mg/kg (NCI-H1417 [26]) of 83%. The Activity (NCI-H146) was “inactive”, the Activity (NCI-H446) was “inactive” and the Activity (NCI-H510A) was “inactive”. The Activity (COLO-668) was “inactive”, the Activity (NCI-H526 [27]) was “inactive” and the inhibition (NCI-H526 [28]) was “Dose-Dependent Effect”. The inhibition (NCI-H526 [29]) was “Dose-Dependent Effect”, the inhibition (NCI-H526 [30]) was “Dose-Dependent Effect” and the inhibition (NCI-H1417 [31]) was “Dose-Dependent Effect”. For the same compound, the Kinact [32] was 0.11 min⁻¹.
